Measured values as given in ChEMBL document CHEMBL1201862, “PubChem BioAssay data set” (2004).
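Briefly, cells in 96-well plates were exposed to five compound concentrations for 48 h, and endpoints were estimated by linear interpolation. Abbreviation: GI50, concentration required for 50% inhibition of growth.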 The source made the active and inactive calls. Rule as the data show it: active = GI50 up to about 1.1 µM and inactive = higher.

Assays:
Assay in all cases: growth of human tumour cells (NCI), 48 h
[1] = tested on: SF-268
[2] = tested on: K562
[3] = tested on: OVCAR-8
[4] = tested on: CAKI-1
[5] = tested on: HOP-62
[6] = tested on: ACHN
[7] = tested on: HCC 2998
[8] = tested on: A498
[9] = tested on: SNB-75
[10] = tested on: OVCAR-3
[11] = tested on: IGROV-1
[12] = tested on: U-251
[13] = tested on: 786-0
[14] = tested on: SF-539
[15] = tested on: NCI-H522
[16] = tested on: KM12
[17] = tested on: TK-10
[18] = tested on: MDA-MB-435
[19] = tested on: PC-3

Structure (SMILES) | GI50 [1] | GI50 [2] | GI50 [3] | GI50 [4] | GI50 [5] | GI50 [6] | GI50 [7] | GI50 [8] | GI50 [9] | GI50 [10] | GI50 [11] | GI50 [12] | GI50 [13] | GI50 [14] | GI50 [15] | GI50 [16] | GI50 [17] | GI50 [18] | GI50 [19]
C[C@]12CCC3[C@@H](CC[C@@H]4c5nonc5CC[C@]34C)C1CC[C@@H]2O (stereo partly drawn) | 29.6 µM (inactive) | 34.3 µM (inactive) | 35.8 µM (inactive) | 19.8 µM (inactive) | 28.4 µM (inactive) | 23.6 µM (inactive) | 31.8 µM (inactive) | 25.2 µM (inactive) | 27.2 µM (inactive) | 21.1 µM (inactive) | 41.8 µM (inactive) | 19.9 µM (inactive) | 25.3 µM (inactive) | 17.4 µM (inactive) | 17.8 µM (inactive) | 37.8 µM (inactive) | 29.5 µM (inactive) | – | –
C[C@@H]1C[C@@H]2C(=O)N(c3ccccc3)C(=O)[C@@H]2c2[nH]c3ccc(Br)cc3c21 | 41.5 µM (inactive) | 49.1 µM (inactive) | 21.8 µM (inactive) | 27.4 µM (inactive) | 23.3 µM (inactive) | 45.1 µM (inactive) | 51.1 µM (inactive) | 68.4 µM (inactive) | 20.2 µM (inactive) | 23.7 µM (inactive) | 87.1 µM (inactive) | 13.5 µM (inactive) | 39.2 µM (inactive) | 65.8 µM (inactive) | 24 µM (inactive) | 25.2 µM (inactive) | 68.9 µM (inactive) | – | –
CCCCN(CC)CC(C(C)=O)c1c(O)c2ccccc2oc1=O (stereo not drawn) | > 100 µM (inactive) | > 100 µM (inactive) | > 100 µM (inactive) | > 100 µM (inactive) | > 100 µM (inactive) | > 100 µM (inactive) | > 100 µM (inactive) | > 100 µM (inactive) | > 100 µM (inactive) | > 100 µM (inactive) | > 100 µM (inactive) | > 100 µM (inactive) | > 100 µM (inactive) | > 100 µM (inactive) | > 100 µM (inactive) | > 100 µM (inactive) | > 100 µM (inactive) | – | –
O=C(Nc1ccc(C(F)(F)F)cc1[N+](=O)[O-])c1cccnc1 | 4.07 µM (inactive) | 2.45 µM (inactive) | – | 2.81 µM (inactive) | 54.5 µM (inactive) | 7.01 µM (inactive) | > 100 µM (inactive) | 18.3 µM (inactive) | 3.72 µM (inactive) | 2.41 µM (inactive) | 6.44 µM (inactive) | 5 µM (inactive) | 10.7 µM (inactive) | 3.37 µM (inactive) | 3.94 µM (inactive) | 2.57 µM (inactive) | 5.46 µM (inactive) | 0.537 µM (active) | –
C=CC1(C(=O)O)CCC(C(C)(C)C)CC1 (stereo not drawn) | > 100 µM (inactive) | > 100 µM (inactive) | > 100 µM (inactive) | > 100 µM (inactive) | > 100 µM (inactive) | > 100 µM (inactive) | > 100 µM (inactive) | > 100 µM (inactive) | > 100 µM (inactive) | > 100 µM (inactive) | > 100 µM (inactive) | > 100 µM (inactive) | > 100 µM (inactive) | > 100 µM (inactive) | 86.1 µM (inactive) | > 100 µM (inactive) | > 100 µM (inactive) | – | –
O=C(Nc1ccc(Cl)cc1)c1cccc([N+](=O)[O-])c1O | 4.67 µM (inactive) | 2.58 µM (inactive) | 4.39 µM (inactive) | 3.19 µM (inactive) | 1.98 µM (inactive) | 2.85 µM (inactive) | 1.99 µM (inactive) | 1.95 µM (inactive) | 3.52 µM (inactive) | 1.81 µM (inactive) | 3.03 µM (inactive) | 2.7 µM (inactive) | 3.88 µM (inactive) | 4.18 µM (inactive) | 1.98 µM (inactive) | 4.53 µM (inactive) | 3.72 µM (inactive) | – | –
COc1ccc(-c2cc(-c3ccco3)c(C#N)c(=O)n2C2OC(OC(=O)c3ccccc3)C(OC(=O)c3ccccc3)C2OC(=O)c2ccccc2)cc1 (stereo not drawn) | > 10 µM (inactive) | > 100 µM (inactive) | > 100 µM (inactive) | > 100 µM (inactive) | 52.6 µM (inactive) | > 100 µM (inactive) | > 100 µM (inactive) | > 100 µM (inactive) | 72.1 µM (inactive) | 58.6 µM (inactive) | > 100 µM (inactive) | 33.1 µM (inactive) | > 100 µM (inactive) | > 100 µM (inactive) | 63.5 µM (inactive) | > 100 µM (inactive) | 13.6 µM (inactive) | – | –
COc1ccc(C(=O)O/N=C2/CCCCC2CN(C)C)cc1 (stereo not drawn) | > 10 µM (inactive) | > 100 µM (inactive) | > 100 µM (inactive) | > 100 µM (inactive) | > 100 µM (inactive) | > 100 µM (inactive) | > 100 µM (inactive) | > 100 µM (inactive) | > 100 µM (inactive) | > 100 µM (inactive) | > 100 µM (inactive) | > 100 µM (inactive) | > 100 µM (inactive) | > 100 µM (inactive) | > 100 µM (inactive) | > 100 µM (inactive) | > 100 µM (inactive) | – | –
COc1ccc([S+]([O-])Cc2cc(OC)c(OC)c(OC)c2)cc1 (stereo not drawn) | 97.5 µM (inactive) | 14.7 µM (inactive) | 62.5 µM (inactive) | 56.9 µM (inactive) | 45.5 µM (inactive) | > 100 µM (inactive) | 54.3 µM (inactive) | – | 45.4 µM (inactive) | 57.8 µM (inactive) | > 100 µM (inactive) | 60.3 µM (inactive) | > 100 µM (inactive) | 56.5 µM (inactive) | 51.3 µM (inactive) | 40.8 µM (inactive) | > 100 µM (inactive) | 5.96 µM (inactive) | > 100 µM (inactive)
COc1cc(/C=C2\NC(=S)C3Cc4c(OC)c(C)c(OC)c(OC)c4C2N3C)c(OC)c(C)c1OC (stereo not drawn) | 95.3 µM (inactive) | 49.4 µM (inactive) | 32.5 µM (inactive) | 58.1 µM (inactive) | > 100 µM (inactive) | 48.2 µM (inactive) | 69 µM (inactive) | 63.5 µM (inactive) | > 100 µM (inactive) | 31 µM (inactive) | > 100 µM (inactive) | 45.1 µM (inactive) | 73.1 µM (inactive) | > 100 µM (inactive) | 20 µM (inactive) | 92.9 µM (inactive) | 46 µM (inactive) | – | –
CNC(=O)CN(CC(N)=O)C(=O)NC | > 100 µM (inactive) | > 100 µM (inactive) | > 100 µM (inactive) | > 100 µM (inactive) | > 100 µM (inactive) | > 100 µM (inactive) | > 100 µM (inactive) | > 100 µM (inactive) | > 100 µM (inactive) | > 100 µM (inactive) | > 100 µM (inactive) | > 100 µM (inactive) | > 100 µM (inactive) | > 100 µM (inactive) | > 100 µM (inactive) | > 100 µM (inactive) | > 100 µM (inactive) | – | –
Cc1ccc(S(=O)(=O)N/N=c2/sc3ccccc3n2C)cc1 | > 100 µM (inactive) | > 100 µM (inactive) | > 100 µM (inactive) | > 100 µM (inactive) | > 100 µM (inactive) | > 100 µM (inactive) | > 100 µM (inactive) | > 100 µM (inactive) | > 100 µM (inactive) | – | > 100 µM (inactive) | > 100 µM (inactive) | > 100 µM (inactive) | > 100 µM (inactive) | 33.7 µM (inactive) | > 100 µM (inactive) | > 100 µM (inactive) | > 100 µM (inactive) | > 100 µM (inactive)
CC(=O)OC1=C(c2ccccc2)S(=O)(=O)c2ccccc21 | > 100 µM (inactive) | > 100 µM (inactive) | > 100 µM (inactive) | > 100 µM (inactive) | > 100 µM (inactive) | > 100 µM (inactive) | > 100 µM (inactive) | > 100 µM (inactive) | > 100 µM (inactive) | > 100 µM (inactive) | > 100 µM (inactive) | > 100 µM (inactive) | > 100 µM (inactive) | > 100 µM (inactive) | > 100 µM (inactive) | > 100 µM (inactive) | > 100 µM (inactive) | > 100 µM (inactive) | > 100 µM (inactive)
Cc1cc(N=C2C=C(Br)C(=O)C(Br)=C2)cc(CN(CC(=O)O)CC(=O)O)c1O | > 100 µM (inactive) | > 100 µM (inactive) | > 100 µM (inactive) | > 100 µM (inactive) | > 100 µM (inactive) | > 100 µM (inactive) | > 100 µM (inactive) | > 100 µM (inactive) | > 100 µM (inactive) | > 100 µM (inactive) | > 100 µM (inactive) | > 100 µM (inactive) | > 100 µM (inactive) | > 100 µM (inactive) | > 100 µM (inactive) | – | – | > 100 µM (inactive) | > 100 µM (inactive)
COc1ccccc1/C=N/C12CC3CC(CC(C3)C1)C2 | > 100 µM (inactive) | 32.4 µM (inactive) | > 100 µM (inactive) | > 100 µM (inactive) | > 100 µM (inactive) | > 100 µM (inactive) | > 100 µM (inactive) | > 100 µM (inactive) | 86.9 µM (inactive) | > 100 µM (inactive) | – | > 100 µM (inactive) | > 100 µM (inactive) | > 100 µM (inactive) | > 100 µM (inactive) | > 100 µM (inactive) | > 100 µM (inactive) | – | –
Cn1ccnc1Oc1ccc(Cl)cc1 | 28.5 µM (inactive) | 13.7 µM (inactive) | 7.69 µM (inactive) | – | 26.2 µM (inactive) | 12.8 µM (inactive) | 4.57 µM (inactive) | 16.9 µM (inactive) | 14.7 µM (inactive) | – | – | 17.9 µM (inactive) | 11.5 µM (inactive) | 11.9 µM (inactive) | 2.28 µM (inactive) | – | 18.7 µM (inactive) | 12.4 µM (inactive) | 14.3 µM (inactive)
